Test results published in patent US20230159527A1, “COMPOUNDS AS BCL-2 INHIBITORS” (Fochon Pharmaceuticals, Ltd., priority 2020, published 2023).

The molecules below were run on Toledo cells (assay: Cell proliferation assay, Toledo cells (MTS, 72 h)). Settings: Homo sapiens, Toledo cells, MTS, read-out: Toledo IC50.
Type: cell-based
How it was run: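 IC50 was derived from 490 nm absorbance after a 2 h MTS step. Before that, compounds at 1.5–10000 nM final (nine points) acted on Toledo cells for 72 h at 37 °C, 5% CO2. Cells were seeded at 30000/well in 10% FBS RPMI-1640 and rested 4 h before dosing.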
`CC(C)c1ccccc1[C@@H]1CCCN1C1CC2(CCN(c3ccc(C(=O)NS(=O)(=O)c4cc5c(c([N+](=O)[O-])c4)N[C@@H]([C@H]4CC[C@](C)(O)CC4)CO5)c(Oc4cc5cc[nH]c5nc4O[C@H]4CCNC4)c3)CC2)C1` (single isomer, unassigned) [Example D-225, N-(((S)-3-((1r,4S)-4-hydroxy-4-methylcyclohexyl)-5-nitro-3,4-dihydro-2H-benzo[b][1,4]oxazin-7-yl)sulfonyl)-4-(2-((R or S)-2-(2-isopropylphenyl)pyrrolidin-1-yl)-7-azaspiro[3.5]nonan-7-yl)-2-((6-(((S)-pyrrolidin-3-yl)oxy)-1H-pyrrolo[2,3-b]pyridin-5-yl)oxy)benzamide] was tested, and the IC50 was 1 nM. With `CC(C)c1ccccc1[C@@H]1CCCN1C1CC2(CCN(c3ccc(C(=O)NS(=O)(=O)c4cc5c(c([N+](=O)[O-])c4)N[C@@H]([C@H]4CC[C@](C)(O)CC4)CO5)c(Oc4cc5cc[nH]c5nc4OC4CC4)c3)CC2)C1` (single isomer, unassigned) [Example D-67, 2-((6-cyclopropoxy-1H-pyrrolo[2,3-b]pyridin-5-yl)oxy)-N-(((S)-3-((1r,4S)-4-hydroxy-4-methylcyclohexyl)-5-nitro-3,4-dihydro-2H-benzo [b][1,4]oxazin-7-yl)sulfonyl)-4-(2-((R or S)-2-(2-isopropylphenyl)pyrrolidin-1-yl)-7-azaspiro[3.5]nonan-7-yl)benzamide] the IC50 was 1 nM. `CC(C)c1ccccc1[C@@H]1CCCN1C1CC2(CCN(c3ccc(C(=O)NS(=O)(=O)c4cc5c(c([N+](=O)[O-])c4)N[C@@H]([C@H]4CC[C@](C)(O)CC4)CO5)c(Oc4cc5cc[nH]c5nc4OCCO)c3)CC2)C1` (single isomer, unassigned) [Example D-68, N-(((S)-3-((1r,4S)-4-hydroxy-4-methylcyclohexyl)-5-nitro-3,4-dihydro-2H-benzo[b][1,4]oxazin-7-yl)sulfonyl)-2-((6-(2-hydroxyethoxy)-1H-pyrrolo[2,3-b]pyridin-5-yl)oxy)-4-(2-((R or S)-2-(2-isopropylphenyl)pyrrolidin-1-yl)-7-azaspiro[3.5]nonan-7-yl)benzamide] gave an IC50 of 1 nM.

The molecules below were run on DoHH2 cells (assay: Cell proliferation assay, DoHH2 cells (MTS, 120 h)). Settings: Homo sapiens, DOHH-2.
Type: cell-based
Protocol: MTS testing kit was purchased from Promega (Madison, Wis., USA). The RPMI-1640, Fetal bovine serum and Penicillin-Streptomycin were purchased from BI (Biological Industries, Beit Haemek, Israel). Dimethyl sulfoxide (DMSO) was purchased from Sigma (St. Louis, Mo., USA). DoHH2 (DSMZ catalog #: ACC47) cells were cultured in RPMI-1640 supplemented with Penicillin-Streptomycin and 10% FBS.
To investigate whether a compound is able to inhibit the activity of BCL-2 in cells, a mechanism-based assay using DoHH2 lines was developed. In this assay, the inhibition of BCL-2 was reflected by the inhibition of cell proliferation of DoHH2 cells. Cells were plated into 96-well plates at the optimized cell density of 5000 cells/well. Plates were incubated at 37° C., with 5% CO2 for 4h. Compounds were serially diluted and added to the plates with the final concentrations of 10000, 3333.3, 1111.1, 370.4, 123.5, 41.2, 13.7, 4.6 and 1.5 nM. Plates were incubated at 37° C., with 5% CO2 for 120 h. 20 μl MTS was added into each well and the plates were incubated at 37° C., with 5% CO2 for exactly 2 h. The absorbance was measured by a microplate reader at 490 nm. IC50 was calculated using GraphPad Prism 5.0 software.
In the case of `O=C(NS(=O)(=O)c1cc2c(c([N+](=O)[O-])c1)O[C@@H](CN1CCOCC1)CO2)c1ccc(N2CCC3(CC2)CC(N2CCC[C@H]2c2ccccc2C2CC2)C3)cc1Oc1cnc2[nH]ccc2c1` (single isomer, unassigned) [Example E-34, 2-((1H-pyrrolo [2,3-b]pyridin-5-yl)oxy)-4-(2-((R or S)-2-(2-cyclopropylphenyl)pyrrolidin-1-yl)-7-azaspiro[3.5]nonan-7-yl)-N-(((5)-2-(morpholinomethyl)-8-nitro-2,3-dihydrobenzo [b][1,4]dioxin-6-yl)sulfonyl) benzamide], the IC50 is reported as ≤ 1 nM. For `CC(C)c1ccccc1C1COCCN1C1CC2(CCN(c3ccc(C(=O)NS(=O)(=O)c4cc([N+](=O)[O-])c5c(n4)OC[C@H](CC4CCOCC4)N5)c(Oc4cnc5[nH]ccc5c4)c3)CC2)C1` (single isomer, unassigned) [Example B-51, 2-((1H-pyrrolo[2,3-b]pyridin-5-yl)oxy)-4-(2-((R or S)-3-(2-isopropylphenyl)morpholino)-7-azaspiro[3.5]nonan-7-yl)-N-(((S)-8-nitro-2-((tetrahydro-2H-pyran-4-yl)methyl)-2,3-dihydro-1H-pyrido[2,3-b][1,4]oxazin-6-yl)sulfonyl)benzamide], the IC50 was ≤ 1 nM. For `CC1(O)CCC(CNc2ncc(S(=O)(=O)NC(=O)c3ccc(N4CCC5(CC4)CC(N4CCC[C@H]4c4ccccc4C4CC4)C5)cc3Oc3cnc4[nH]ccc4c3)cc2[N+](=O)[O-])CC1` (stereo partly drawn) [Example A-1b, (S)-2-((1H-pyrrolo[2,3-b]pyridin-5-yl)oxy)-4-(2-(2-(2-cyclopropylphenyl)pyrrolidin-1-yl)-7-azaspiro[3.5]nonan-7-yl)-N-((6-(((4-hydroxy-4-methylcyclohexyl)methyl)amino)-5-nitropyridin-3-yl)sulfonyl)benzamide], the IC50 was ≤ 1 nM. In the case of `CC(C)c1ccccc1C1COCCN1C1CC2(CCN(c3ccc(C(=O)NS(=O)(=O)c4cc5c(c([N+](=O)[O-])c4)N[C@@H](CN4CCC(NS(C)(=O)=O)CC4)CO5)c(Oc4cnc5[nH]ccc5c4)c3)CC2)C1` (single isomer, unassigned) [Example D-23, 2-((1H-pyrrolo[2,3-b]pyridin-5-yl)oxy)-4-(2-((R or S)-3-(2-isopropylphenyl)morpholino)-7-azaspiro[3.5]nonan-7-yl)-N-(((S)-3-((4-(methylsulfonamido)piperidin-1-yl)methyl)-5-nitro-3,4-dihydro-2H-benzo[b][1,4]oxazin-7-yl)sulfonyl)benzamide], the IC50 is reported as ≤ 1 nM. For `O=C(NS(=O)(=O)c1cc2c(c([N+](=O)[O-])c1)O[C@@H](CN1CCOCC1)CO2)c1ccc(N2CCC3(CC2)CC(N2CCOC[C@H]2c2ccccc2C2CC2)C3)cc1Oc1cnc2[nH]ccc2c1` (single isomer, unassigned) [Example E-37, 2-((1H-pyrrolo [2,3-b]pyridin-5-yl)oxy)-4-(2-((R or S)-3-(2-cyclopropylphenyl)morpholino)-7-azaspiro[3.5]nonan-7-yl)-N-(((S)-2-(morpholinomethyl)-8-nitro-2,3-dihydrobenzo [b][1,4]dioxin-6-yl)sulfonyl) benzamide], the IC50 was ≤ 1 nM. `CC(C)c1ccccc1[C@@H]1CCCN1C1CC2(CCN(c3ccc(C(=O)NS(=O)(=O)c4cc([N+](=O)[O-])c5c(n4)OC[C@H]([C@H]4CC[C@@](C)(O)CC4)N5)c(Oc4cnc5[nH]ccc5c4)c3)CC2)C1` (single isomer, unassigned) [Example B-35, 2-((1H-pyrrolo[2,3-b]pyridin-5-yl)oxy)-N-(((S)-2-((1s,4R)-4-hydroxy-4-methylcyclohexyl)-8-nitro-2,3-dihydro-1H-pyrido[2,3-b] [1,4]oxazin-6-yl)sulfonyl)-4-(2-((R or S)-2-(2-isopropylphenyl)pyrrolidin-1-yl)-7-azaspiro[3.5]nonan-7-yl)benzamide] was tested, and the IC50 was ≤ 1 nM. In the case of `CC(C)c1ccccc1C1CCCN1C1CC2(CCN(c3ccc(C(=O)NS(=O)(=O)c4cc([N+](=O)[O-])c5c(n4)OC[C@@H](Cc4ccccc4)N5)c(Oc4cnc5[nH]ccc5c4)c3)CC2)C1` (single isomer, unassigned) [Example B-36, 2-((1H-pyrrolo[2,3-b]pyridin-5-yl)oxy)-N-(((R)-2-benzyl-8-nitro-2,3-dihydro-1H-pyrido[2,3-b] [1,4]oxazin-6-yl)sulfonyl)-4-(2-((R or S)-2-(2-isopropylphenyl)pyrrolidin-1-yl)-7-azaspiro[3.5]nonan-7-yl)benzamide], the IC50 is reported as ≤ 1 nM. For `O=C(NS(=O)(=O)c1cc([N+](=O)[O-])c2c(n1)OC[C@H](COC1CCOCC1)N2)c1ccc(N2CCC3(CC2)CC(N2CCCC2c2ccccc2C2CC2)C3)cc1Oc1cnc2[nH]ccc2c1` (single isomer, unassigned) [Example B-46, 2-((1H-pyrrolo[2,3-b]pyridin-5-yl)oxy)-4-(2-((R or S)-2-(2-cyclopropylphenyl)pyrrolidin-1-yl)-7-azaspiro[3.5]nonan-7-yl)-N-(((S)-8-nitro-2-(((tetrahydro-2H-pyran-4-yl)oxy)methyl)-2,3-dihydro-1H-pyrido[2,3-b] [1,4]oxazin-6-yl)sulfonyl)benzamide], the IC50 was ≤ 1 nM.
